From ChEMBL document CHEMBL1148784, “Synthesis and structure-affinity relationships of new 4-(6-iodo-H-imidazo[1,2-a]pyridin-2-yl)-N-dimethylbenzeneamine derivatives as ligands for human beta-amyloid plaques” (J Med Chem, 2007)

Target: Amyloid-beta precursor protein (Homo sapiens, UniProt P05067)
Experiment: Binding affinity to human beta amyloid plaque in alzheimer's disease patient brain

Chain of Amyloid-beta precursor protein (P05067 whole entry): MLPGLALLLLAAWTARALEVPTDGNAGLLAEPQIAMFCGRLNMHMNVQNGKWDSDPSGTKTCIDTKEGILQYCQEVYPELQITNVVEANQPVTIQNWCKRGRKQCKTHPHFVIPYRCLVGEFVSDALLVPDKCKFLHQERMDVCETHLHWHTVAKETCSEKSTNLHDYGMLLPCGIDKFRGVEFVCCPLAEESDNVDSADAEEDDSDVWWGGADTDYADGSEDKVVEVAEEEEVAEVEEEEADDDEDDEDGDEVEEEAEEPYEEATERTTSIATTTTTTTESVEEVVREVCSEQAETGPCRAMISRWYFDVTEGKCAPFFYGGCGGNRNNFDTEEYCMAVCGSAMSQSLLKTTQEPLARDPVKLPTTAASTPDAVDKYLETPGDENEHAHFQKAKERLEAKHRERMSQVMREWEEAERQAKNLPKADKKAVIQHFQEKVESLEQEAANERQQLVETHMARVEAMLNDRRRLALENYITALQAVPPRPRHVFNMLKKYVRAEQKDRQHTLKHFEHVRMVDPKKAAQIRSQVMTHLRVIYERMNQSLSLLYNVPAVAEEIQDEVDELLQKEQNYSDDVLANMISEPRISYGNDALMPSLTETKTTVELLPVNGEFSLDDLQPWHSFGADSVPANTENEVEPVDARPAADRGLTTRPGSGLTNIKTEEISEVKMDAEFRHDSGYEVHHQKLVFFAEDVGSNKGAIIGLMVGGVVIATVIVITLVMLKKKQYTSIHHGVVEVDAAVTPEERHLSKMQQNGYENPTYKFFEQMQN

| SMILES | Ki |
| --- | --- |
| Cc1cc(-c2cn3cc(Br)ccc3n2)ccc1NC(=O)C(F)(F)F | > 1 µM |
| CNc1ccc(-c2cn3cc(SCCO)ccc3n2)cc1C | > 1 µM |
| CC(=O)N(C)c1ccc(-c2cn3cc(Br)ccc3n2)cc1C | > 1 µM |
| CN(C)c1ccc(-c2cn3cc(Br)cc(C#N)c3n2)cc1 | > 0.18 µM |
| CN(C(=O)C(F)(F)F)c1ccc(-c2cn3cc(Br)ccc3n2)cc1Br | > 1 µM |
| CN(C)c1ccc(-c2cn3cc(Br)cc(I)c3n2)cc1 | 0.183 µM |
| CNc1ccc(-c2cn3cc(Br)ccc3n2)cc1C | > 1 µM |
| CNc1ccc(-c2cn3cc(SCC(N)=O)ccc3n2)cc1C | > 1 µM |
